For 39 compounds, IC50 results are on record in PubChem BioAssay AID652123 (The Scripps Research Institute Molecular Screening Center, 2013).

This experiment has as its target Hepatocyte nuclear factor 4-alpha (Homo sapiens) (UniProt P41235). The experiment can be described thus: HNF4 dimerization inhibitors, dose response, counter-screen for ABHD5-PLIN5 interaction inhibitor project, biochemical, luminescence, round 2 (AID 652123). The conditions noted are these: HNF4 dimerization biochemical luminescence assay.

SMILES strings stand for the structures. Activity calls are given as the source filed them. The rule behind the calls is not given here. Some results are limits rather than exact numbers.

Sequence of Hepatocyte nuclear factor 4-alpha (Homo sapiens) (P41235 whole entry, looked up): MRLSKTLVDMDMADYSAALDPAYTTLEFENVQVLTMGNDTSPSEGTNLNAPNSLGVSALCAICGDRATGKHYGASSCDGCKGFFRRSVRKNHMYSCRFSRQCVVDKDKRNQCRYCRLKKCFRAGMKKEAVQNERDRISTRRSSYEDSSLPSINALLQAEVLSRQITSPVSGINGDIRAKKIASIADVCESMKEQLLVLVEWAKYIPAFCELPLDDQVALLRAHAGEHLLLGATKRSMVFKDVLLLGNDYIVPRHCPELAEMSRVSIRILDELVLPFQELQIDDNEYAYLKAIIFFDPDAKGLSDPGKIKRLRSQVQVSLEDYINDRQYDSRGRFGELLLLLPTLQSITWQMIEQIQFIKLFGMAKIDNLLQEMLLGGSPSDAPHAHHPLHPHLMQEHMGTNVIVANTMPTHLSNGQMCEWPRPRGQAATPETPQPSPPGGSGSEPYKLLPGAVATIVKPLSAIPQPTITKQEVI

As for `CCS(=O)(=O)c1ncc(Cl)c(C(=O)Nc2ccc(S(N)(=O)=O)cc2)n1`, the half-maximal inhibitory concentration (IC50) (commonly the concentration needed to halve the response being measured) is 5.08 µM. The value for `CN1C(=O)c2ccccc2Sc2ccc(NC(=O)NCCc3cccs3)cc21` was > 39.8 µM (inactive); that for `CN1C(=O)c2ccccc2Sc2ccc(NC(=O)NCCc3ccccc3)cc21` was > 39.8 µM (inactive).

For the compound `CC(NC(=O)CN1CCN(S(=O)(=O)c2ccc3c(c2)OCCCO3)CC1)c1cc2ccccc2o1` (centres undefined), the IC50 is > 39.8 µM (inactive).

As to `O=C(c1nc(S(=O)(=O)Cc2ccccc2)ncc1Cl)N(Cc1ccccc1)Cc1ccco1`, the half-inhibitory concentration (IC50) was 1.35 µM. The value for `CC(C)N1C(=O)c2ccccc2Oc2ccc(NC(=O)c3ccccc3)cc21` was > 39.8 µM (inactive). The same measure for `COc1ccc(CC(=O)N2CCCN(S(=O)(=O)c3ccc(C)cc3)CC2)cc1OC`: > 39.8 µM (inactive); for `CN1C(=O)c2ccccc2Oc2ccc(NC(=O)c3cc4ccccc4[nH]3)cc21`: > 39.8 µM (inactive); for `CS(=O)(=O)c1ncc(Cl)c(C(=O)Nc2ccc(C(F)(F)F)cc2)n1`: 1.15 µM.

As for `Cc1ccc(NC(=O)c2nc(S(C)(=O)=O)ncc2Cl)cc1`, the half-inhibitory concentration (IC50) was 2.44 µM. The same measure for `Cc1ccc(CS(=O)(=O)c2ncc(Cl)c(C(=O)Nc3cccc4ccccc34)n2)cc1`: 2.79 µM; for `CN(C)CCCN(C(=O)C1CCCCC1)c1nc2cc(Br)ccc2s1`: > 39.8 µM (inactive); for `CCCS(=O)(=O)c1ccc(Cl)c(C(=O)Nc2ccc(C(=O)OCC)cc2)c1`: 5.66 µM. The value for `CCS(=O)(=O)c1ncc(Cl)c(C(=O)Nc2ccc(C)cc2)n1` was 4.01 µM; that for `NS(=O)(=O)c1ccc(NC(=O)c2nc(S(=O)(=O)Cc3ccccc3)ncc2Cl)cc1` was 3.81 µM; that for `Cc1ccc(CS(=O)(=O)c2ncc(Cl)c(C(=O)N3CCN(C)CC3)n2)cc1` was 2.17 µM. The value for `CCCCCCNC(=O)Nc1ccc2c(c1)Sc1ccccc1C(=O)N2C` was > 39.8 µM (inactive); that for `CN1C(=O)c2ccccc2Oc2ccc(NC(=O)c3cccs3)cc21` was > 39.8 µM (inactive). In the case of `CN(C(=O)c1nc(S(C)(=O)=O)ncc1Cl)c1ccccc1`, the IC50 is 1.38 µM.

Turning to `CCCC(=O)Nc1ccc2c(c1)C(=O)N(C)c1ccccc1O2`, the IC50 was > 39.8 µM (inactive).

Turning to `O=C(Cc1ccc2c(c1)CCCC2)N1CCN(S(=O)(=O)c2ccc3c(c2)OCCO3)CC1`, the IC50 result is “inactive”. The value for `CCCC(=O)Nc1ccc2c(c1)C(=O)N(C)c1cc(C)ccc1O2` was > 39.8 µM (inactive); that for `COc1ccc(CCNC(=O)c2nc(S(=O)(=O)Cc3ccc(F)cc3)ncc2Cl)cc1OC` was 1.94 µM. `Cc1ccc2c(CC(=O)N3CCN(S(=O)(=O)c4ccc5c(c4)OCCCO5)CC3)coc2c1C`: the IC50 is > 39.8 µM (inactive).

As to `Cc1ccc(CS(=O)(=O)c2ncc(Cl)c(C(=O)Nc3cccc(C(F)(F)F)c3)n2)cc1`, the IC50 was 3.09 µM.

As to `CCCNC(=O)Nc1ccc2c(c1)N(CC)C(=O)c1ccccc1S2`, the IC50 is > 39.8 µM (inactive). The value for `CN1C(=O)c2ccccc2Sc2ccc(NC(=O)NCCCc3ccccc3)cc21` was > 39.8 µM (inactive); that for `Cc1ccc(CS(=O)(=O)c2ncc(Cl)c(C(=O)Nc3nnc(C(C)C)s3)n2)cc1` was > 39.8 µM (inactive); that for `CN(C)CCCN(C(=O)CCc1ccccc1)c1nc2ccc(Cl)cc2s1` was > 39.8 µM (inactive).

For the compound `CCCCCNC(=O)Nc1ccc2c(c1)Sc1ccccc1C(=O)N2C`, the IC50 is > 39.8 µM (inactive).

With `O=C(Nc1ccc2ccccc2c1)c1nc(S(=O)(=O)Cc2ccccc2)ncc1Cl`, the 50% inhibitory concentration (IC50) is 2.42 µM. With `CCCC(=O)N(CCCN1CCOCC1)c1nc2ccc(Cl)cc2s1`, the IC50 was > 39.8 µM (inactive). The same measure for `CN(C)CCCN(C(=O)c1cc2ccccc2oc1=O)c1nc2ccc(Cl)cc2s1`: > 39.8 µM (inactive); for `CN(C)CCCN(C(=O)Cc1ccc(F)cc1)c1nc2ccc(Cl)cc2s1`: > 39.8 µM (inactive); for `O=C(Cc1cccc(F)c1)N1CCN(S(=O)(=O)c2ccc3c(c2)OCCO3)CC1`: > 39.8 µM (inactive).

With `Cc1ccc(CS(=O)(=O)c2ncc(Cl)c(C(=O)NCc3ccc4c(c3)OCO4)n2)cc1`, the 50% inhibitory concentration (IC50) was 1.87 µM. The value for `CN(C)CCCN(C(=O)C1CCCCC1)c1nc2cc(Cl)ccc2s1` was > 39.8 µM (inactive). The value for `CCCS(=O)(=O)c1ncc(Cl)c(C(=O)Nc2ccc(C(=O)OC)cc2)n1` was 4.99 µM; that for `CCCCCCCNC(=O)Nc1ccc2c(c1)Sc1ccccc1C(=O)N2C` was > 39.8 µM (inactive).
